Measured values taken from patent publication US10132029B2, “Method for reducing adhesion of microorganisms to fabrics” (priority 2013, dated 2018).
Several values for one entry are separate records, joined by “and”; a condition that tells them apart may be missing. Equal values may be shown once. Read-outs that look alike come from different tables or passages of the source.

Experiments:
S. aureus DSMZ 20231 = assay: Syto9 microtiter plate assay: adhesion of bacteria to coated polyester fabric samples; type: cell-based, Staphylococcus aureus; settings: for Reduction in adhered bacteria [%] S. aureus: polyester fabric, application concentration 0.1 wt %, commercial product applied directly by padding, relative to uncoated fabric; for Reduction in adhered bacteria [%]: S. aureus, polyester
Procedure: (§1) Circular fabric samples with a diameter of 0.6 cm were punched from coated and uncoated cotton and polyester fabrics. The fabric samples were fixed to a microtiter plate. The fabric samples were washed with acetone and sterilized with UV light for 60 minutes.
(§2) The strains were coated fresh from glycerol bacterial cultures onto tryptic soy agar (TSA). Incubation took place overnight at 33° C. The nutrient medium prepared was a tryptic soy broth (TSB), with 30% of the amount recommended by the manufacturer, supplemented with 0.25% of glucose. […] The nutrient medium was inoculated with the bacterial cultures and after inoculation was cultivated overnight at 37° C. and 160 rpm.
(§3) The resulting overnight cultures were centrifuged at 8500 g for 15 minutes and washed with 50 ml of isotonic saline solution (0.9 wt %). Bacterial suspensions in isotonic saline solutions were prepared. The optical density of the various bacterial suspensions was determined at 595 nm and adjusted to a level of about 1.2.
(§4) 50 μl of the final microorganism suspension in isotonic saline solution (0.9 wt %) prepared as described under 2.2 were added to the coated and uncoated fabric samples fixed on the microtiter plate (see 2.1). The microtiter plates were closed and sealed off with Parafilm. The microtiter plates were placed in an antievaporation box and incubated at 33° C. for 2 h and at 40 rpm. The expected colony-forming unit count (CFU) of the inoculum at the start was 10^6-10^7 CFU/ml.
(§5) After the biofilm had formed, the planctonic cells were removed and used as a sample for determining the optical density at 595 nm. For this purpose, the samples were made up to a volume of 150 μl, and 100 μl were withdrawn for the optical density determination in a photometer. The optical density of the corresponding control solution with sterile isotonic saline solution was subtracted from the optical densities found. Through the determination of the planctonic cells after the formation of biofilm, the amount of bacteria available for adhesion was monitored.
(§6) The fabric samples and the resulting biofilm were washed three times with 200 to 300 μl of isotonic saline solution.
(§7) The fabric samples obtained under 2.4 (after formation of biofilm) were placed together with 100 μl of isotonic saline solution into wells of a 96-well microtiter plate.
(§8) Investigations into the removal of the adhered microorganisms from the fabric surfaces were carried out with vortexing, ultrasound, with enzymatic treatment, or with combinations thereof. Treatment in the vortex amounted to 5 minutes and was performed horizontally. The ultrasound treatment was carried out in an ultrasound bath for 5 minutes. For the enzymatic removal, the fabric samples were treated with enzymes, such as trypsin or a mixture of different enzymes, for example, during incubation at 37° C. for 1 hour.
(§9) Following removal of the adhered bacteria, the fabric samples were removed from the microtiter plates.
(§10) The number of removed bacteria in the resulting suspension was determined by staining with Syto9 and fluorescence measurement (fluorescence filter with excitation at 485/20 nm and emission at 528/20 nm) or by staining with BacTiterGlo and bioluminescence measurement. Furthermore, it is possible to determine the number of adhered and removed microorganisms by means of protein assay (e.g., BCA assay, Bradford Assay) or optical density proliferation assay.
The relative variables (e.g., fluorescence units (RFU)) concerning the coated and uncoated fabrics were compared, allowing the reduction in adhered bacteria in % to be determined in accordance with the following formula: Reduction in adhered bacteria[%]=[(RFUuc−RFUuc)/RFUuc]*100 where • RFUuc=relative fluorescence units of the removed bacteria of the uncoated substrate • RFUc=relative fluorescence units of the removed bacteria of the coated substrate […]

P. aeruginosa DSMZ 1117 = type: cell-based, Pseudomonas aeruginosa; settings: for Reduction in adhered bacteria [%] P. aeruginosa: polyester fabric, application concentration 0.1 wt %, commercial product applied directly by padding, relative to uncoated fabric; for Reduction in adhered bacteria [%]: P. aeruginosa, polyester
Procedure: as §1, §2, §3, §4
as §5, with “The optical density of the corresponding control solution with sterile isotonic saline solution was subtracted from the optical densities found.” left out
as §6, §7, §8, §9, §10
The relative variables (e.g., fluorescence units (RFU)) concerning the coated and uncoated fabrics were compared, allowing the reduction in adhered bacteria in % to be determined in accordance with the following formula: Reduction in adhered bacteria[%]=[(RFUuc−RFUuc)/RFUuc]*100 where • RFUuc=relative fluorescence units of the removed bacteria of the uncoated substrate • RFUc=relative fluorescence units of the removed bacteria of the coated substrate
The commercial products described in example 1 were applied directly by a padding method to polyester fabric samples.
Bacterial adhesion to the polyester fabric samples was investigated using the microtiter plate Syto9 assay, as described in example 2.

Staphylococcus aureus [1] = type: cell-based; settings: for Reduction in cell count relative to control [%] S. aureus: coated glass slide vs uncoated glass control K; for Cell count [1/cm^2] S. aureus: glass slide coated from 0.1% strength solution, bacterial suspension 10^9 microbes/ml, 30 measuring windows
Description: (§11) Silane derivatives S1, S3, S4 and S5 as identified above in example 1 were used to produce coatings on glass slides. As a control (comparison sample) K, an uncoated glass slide cleaned with isopropanol was used.
(§12) For the coating of the slides they were immersed for 60 seconds into a 0.1% strength solution of the corresponding silane derivative in ethanol/water as solvent with a water fraction of 5%. The solutions had been adjusted with acetic acid beforehand to a pH in the range from 4 to 5. The wetted slides were subsequently dried at 160° C. for 1 hour.
(§13) The slides wetted with the bacterial suspension were analyzed by microscope to determine the adhering bacteria. […] The fluorescent dye used was DAPI (4′,6-diamidine-2-phenylindole), which binds to DNA and fluoresces under UV excitation. In order to determine the adhesion characteristics, the cell counts per cm^2 were ascertained in 30 measuring windows, and the adhesion pattern was evaluated. Cell attachment was evaluated on an Olympus IX 51 using the Labflow AnalySIS image processing program.
(§14) Bacterial suspensions produced and used were suspensions of test cultures of the strains Staphylococcus aureus and Escherichia coli. The concentration of the bacterial suspension was 10^9 microbes/ml.

Escherichia coli = assay: Bacterial adhesion to coated glass slides via fluorescence microscopy (DAPI); type: cell-based; settings: for Reduction in cell count relative to control [%] E. coli: coated glass slide vs uncoated glass control K; for Cell count [1/cm^2] E. coli: glass slide coated from 0.1% strength solution, bacterial suspension 10^9 microbes/ml, 30 measuring windows
Description: as §11, §12, §13, §14

Staphylococcus aureus [2] = assay: Antimicrobial activity of coated polyester fabric samples as per JIS L 1902; type: cell-based; settings: for Antimicrobial activity[log] Unwashed: 18 hours at 37° C.
Procedure: The procedure here is that the fabric sample was inoculated with a defined amount of a microbial suspension (inoculum). Test specimens with a weight of approximately 0.4 g were investigated in a triplicate determination.
The inoculated fabric sample was incubated in a closed system at 37° C. over a period of 18 hours. Following incubation, the bacteria of a defined amount of a dilution solution were recorded. The difference in the bacterial count of the fabric sample at 0 hours in comparison to the fabric sample after 18 hours served as a basis for evaluation. The antimicrobial activity is reported as a logarithmic or percentage value. Here, a reduction in the microbe count of 0% corresponds to inadequate antimicrobial action, a microbe reduction in the range from 0.1 to less than 90% to an inadequate antibacterial action, and a microbe reduction of greater than 90% to a good antibacterial action.

[3] = coating concentration 0.001 %, wash pretreatment (A) unwashed
[4] = coating concentration 0.001 %, wash pretreatment (B) washed twice at 30° C. only with water
[5] = coating concentration 0.01 %, wash pretreatment (A) unwashed
[6] = coating concentration 0.01 %, wash pretreatment (B) washed twice at 30° C. only with water
[7] = coating concentration 0.01 %, wash pretreatment (C) washed once at 30° C. EN ISO 6330 method 8A with ECE B detergent
[8] = coating concentration 0.1 %, wash pretreatment (A) unwashed
[9] = coating concentration 0.1 %, wash pretreatment (B) washed twice at 30° C. only with water
[10] = coating concentration 0.1 %, wash pretreatment (C) washed once at 30° C. EN ISO 6330 method 8A with ECE B detergent
[11] = coating concentration 0.001 % based on fabric
[12] = coating concentration 0.01 % based on fabric
[13] = coating concentration 0.1 % based on fabric

## CCO[Si](CCCNC(=O)[C@H](O)[C@@H](O)[C@H](O)[C@H](O)CO)(OCC)OCC [S4, N-(triethoxysilylpropyl)gluconamide]
S. aureus DSMZ 20231
  Reduction in adhered bacteria [%] S. aureus: 58%
P. aeruginosa DSMZ 1117
  Reduction in adhered bacteria [%] P. aeruginosa: 57%
Staphylococcus aureus [1]; S. aureus on coated glass surface
  adhesion pattern on microscopic inspection: only a few grapelike assemblies of S. aureus
Staphylococcus aureus [1]
  Reduction in cell count relative to control [%] S. aureus: 16% and 17%
  Cell count [1/cm^2] S. aureus: 383 000 1/cm^2
Escherichia coli
  Reduction in cell count relative to control [%] E. coli: 51%
  Cell count [1/cm^2] E. coli: 389 000 1/cm^2

## bis[3-(triethoxysilylpropoxy)-2-hydroxypropoxy)]polyethylene oxide (5-10 EO units) [S2]
S. aureus DSMZ 20231; [3]
  Reduction in adhered bacteria [%]: 30%
S. aureus DSMZ 20231; [4]
  Reduction in adhered bacteria [%]: 52%
S. aureus DSMZ 20231; [5]
  Reduction in adhered bacteria [%]: 71%
S. aureus DSMZ 20231; [6]
  Reduction in adhered bacteria [%]: 31%
S. aureus DSMZ 20231; [7]
  Reduction in adhered bacteria [%]: 66%
S. aureus DSMZ 20231; [8]
  Reduction in adhered bacteria [%]: 55%
S. aureus DSMZ 20231; [9]
  Reduction in adhered bacteria [%]: 48%
S. aureus DSMZ 20231; [10]
  Reduction in adhered bacteria [%]: 49%
S. aureus DSMZ 20231
  Reduction in adhered bacteria [%] S. aureus: 85%
P. aeruginosa DSMZ 1117; [3]
  Reduction in adhered bacteria [%]: 62%
P. aeruginosa DSMZ 1117; [4]
  Reduction in adhered bacteria [%]: 87%
P. aeruginosa DSMZ 1117; coating concentration 0.001 %, wash pretreatment (C) washed once at 30° C. EN ISO 6330 method 8A with ECE B detergent
  Reduction in adhered bacteria [%]: 55%
P. aeruginosa DSMZ 1117; [5]
  Reduction in adhered bacteria [%]: 79%
P. aeruginosa DSMZ 1117; [6]
  Reduction in adhered bacteria [%]: 36%
P. aeruginosa DSMZ 1117; [7]
  Reduction in adhered bacteria [%]: 75%
P. aeruginosa DSMZ 1117; [8]
  Reduction in adhered bacteria [%]: 68%
P. aeruginosa DSMZ 1117; [9]
  Reduction in adhered bacteria [%]: 45%
P. aeruginosa DSMZ 1117; [10]
  Reduction in adhered bacteria [%]: 75%
P. aeruginosa DSMZ 1117
  Reduction in adhered bacteria [%] P. aeruginosa: 64%
Staphylococcus aureus [2]; [11]
  Antimicrobial activity[log] Unwashed: 0.2 log
  Antimicrobial activity[log] Washed once at 30° C., without detergent: −0.1 log
  Antimicrobial activity[log] Washed twice with water: 0.1 log
Staphylococcus aureus [2]; [12]
  Antimicrobial activity[log] Unwashed: −0.4 log
  Antimicrobial activity[log] Washed once at 30° C., without detergent: −0.6 log
  Antimicrobial activity[log] Washed twice with water: 0.1 log
Staphylococcus aureus [2]; [13]
  Antimicrobial activity[log] Unwashed: −0.2 log
  Antimicrobial activity[log] Washed once at 30° C., without detergent: −0.4 log
  Antimicrobial activity[log] Washed twice with water: 0.00 log

## methoxy(polyethyleneoxy)propyltrimethoxysilane (9-12 EO units) [S1]
S. aureus DSMZ 20231
  Reduction in adhered bacteria [%] S. aureus: 34%
P. aeruginosa DSMZ 1117
  Reduction in adhered bacteria [%] P. aeruginosa: 41%
Staphylococcus aureus [1]
  Reduction in cell count relative to control [%] S. aureus: 76%
  Cell count [1/cm^2] S. aureus: 110 000 1/cm^2
Staphylococcus aureus [1]; coated glass slides
  adhesion of S. aureus to coated glass, assessment in words: Very good results
Escherichia coli; both series of tests (S. aureus and E. coli), compared with glass control
  adhesion of bacteria to coated glass, assessment in words: very good results
Escherichia coli
  Reduction in cell count relative to control [%] E. coli: 63%
  Cell count [1/cm^2] E. coli: 296 000 1/cm^2
